Measurements: patent publication US4473646A, “Stereospecific asparaginases” (Development Finance Corp. of New Zealand, priority 1980, dated 1984)

Assays:
Type in all cases: biochemical
[1] = test system: D-asparaginase THERMUS T-351 (ATCC No. 31,674); assay: Asparaginase properties: Km and inhibitors; conditions: for Inhibitors: loss of activity: inhibitor concentration not stated
[2] = test system: L-asparaginase THERMUS T-351 (ATCC No. 31,674); assay: Asparaginase properties: inhibitors; conditions: inhibitor concentration not stated
[3] = biological target: T1, L-asparaginase E. COLI (B) (for comparison) (Escherichia coli, UniProt P00805); assay: Asparaginase properties: Km and inhibitors (for comparison); conditions: inhibitor concentration not stated
T1 sequence (P00805 23-348): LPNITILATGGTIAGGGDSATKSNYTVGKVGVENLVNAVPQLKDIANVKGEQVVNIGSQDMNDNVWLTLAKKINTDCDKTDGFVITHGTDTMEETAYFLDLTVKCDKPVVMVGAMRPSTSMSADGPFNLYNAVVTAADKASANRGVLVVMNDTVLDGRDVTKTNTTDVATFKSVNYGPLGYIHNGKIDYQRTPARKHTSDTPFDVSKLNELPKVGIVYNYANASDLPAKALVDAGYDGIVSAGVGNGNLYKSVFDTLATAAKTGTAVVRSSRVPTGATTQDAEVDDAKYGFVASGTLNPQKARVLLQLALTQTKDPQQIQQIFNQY

In the case of CC(N)=O [Acetamide], the “Inhibitors: loss of activity” value [1] is reported as 100%, the “Inhibitors: loss of activity” value [2] is reported as “No loss of activity” and the “Inhibitors: loss of activity” value [3] is reported as “No loss of activity”.
NC(=O)C[C@@H](N)C(=O)O [D-asparagine] gave a Km ([1]; substrate not given, enzyme specific only for D-asparagine) of 20 mM.
For O=C(O)c1cc[c]([Hg][Cl])cc1 [pCMB], the “Inhibitors: loss of activity” value [1] was “No loss of activity”, the “Inhibitors: loss of activity” value [2] was 100% and the “Inhibitors: loss of activity” value [3] was “No loss of activity”.
